Laboratory results from US20130310306A1, “HUMAN LACTOFERRIN DERIVED PEPTIDES AND THEIR USE” (PharmaSurgics In Sweden AB, priority 2011, published 2013).
“Also recorded” adds a separate entry of the source.

Assays:
[1] = tested on: E. coli (CCUG 31246); assay: MMC99 assay, E. coli; type: cell-based; settings: Table 8A
Method: (§1) The antimicrobial effects of the peptide 265 (SEQ ID NO: 27) was analysed by MMC99 (minimal microbicidal concentration) assay against S. aureus (CCUG 1800), MRSA (CCUG 41879), P. aeruginosa (ATCC 15442), E. coli (CCUG 31246), S. pyogenes (CCUG 4207), P. acnes (CCUG 1794T), S. epidermidis (ATCC12228), K. pneumoniae (ATCC 13883), A. baumannii (ATCC 19606), and C. albicans (ATCC 64549). The peptides were purchased from Biopeptide Company (San Diego, Calif., USA) and Bachem AG (Bubendorf, Switzerland) and results are presented in Table 8A and 8B respectively.
(§2) Peptide was serially diluted in two different assay medium, 1% BHI medium (brain-heart infusion medium) or 50% heat inactivated simulated wound fluid (SWF), and thereafter incubated with the microorganisms for 2 hours. Drops of the suspension were placed on blood agar plates. The MMC99 values, i.e. the lowest peptide concentration needed to achieve a 99% reduction of viable microorganisms, were recorded. As presented in Table 8, the peptide has the ability to kill microorganisms frequently appearing in infections.

[2] = tested on: S. pyogenes (CCUG 4207); assay: MMC99 assay, S. pyogenes; type: cell-based; settings: Table 8A
Method: as §1, §2

[3] = tested on: K. pneumoniae (ATCC 13883); assay: MMC99 assay, K. pneumoniae; type: cell-based; settings: Table 8B
Method: as §1, §2

[4] = tested on: S. epidermidis (ATCC12228); assay: MMC99 assay, S. epidermidis; type: cell-based; settings: Table 8B
Method: as §1, §2

[5] = tested on: P. acnes (CCUG 1794T); assay: MMC99 assay, P. acnes; type: cell-based; settings: Table 8A
Method: as §1, §2

[6] = tested on: MRSA (CCUG 41879); assay: MMC99 assay, MRSA; type: cell-based, methicillin resistant S. aureus; settings: Table 8A
Method: as §1, §2

[7] = tested on: S. aureus; assay: Antimicrobial effect in infected wounds, ex vivo model on pig skin; settings: S. aureus in PBS/serum (50/50); peptide in H2O 0.1, 0.5 and 2 mg/ml, single administration, four hours; vs placebo (H2O)
From the text: FIG. 5. Dose response effect of peptide 265 (A), on bacterial colonization of infected wounds in pig skin. […] Results are presented as relative bacterial survival (%) compared to control group ±SEM (n=10 wounds). Statistical significance was estimated by Student's t test. *=p<0.05, **=p<0.01, ***=p<0.001.
The antimicrobial effects of the peptide 265 (SEQ ID NO: 27) was investigated in an ex vivo model on pig skin. The wounds were inoculated with S. aureus in the presence of PBS/Serum 50/50. Two hours after inoculation the wounds were treated with a single administration of the peptide or placebo (H2O). Four hours after the treatment bacteria were harvested and viable counts of each wound were determined.

[8] = tested on: TNF-α production in LPS stimulated THP-1 cells; assay: Inhibition of TNF-α production in LPS stimulated THP-1 cells (ELISA); settings: screen 2, mean relative secretion
[9] = tested on: A. baumannii (ATCC 19606); assay: MMC99 assay, A. baumannii; type: cell-based; settings: Table 8B
Method: as §1, §2

[10] = tested on: MRSA (CCUG 41879); assay: In vivo antimicrobial effect in excision wound model in rats; set-up: species or system rat; settings: peptide in H2O 0.1, 0.5 and 2 mg/ml, single administration, two hours, vs control (H2O)
From the text: FIG. 4. Dose-response effect of peptide 265 (A) on bacterial colonization of infected excision wounds in rats. […] Results are presented as relative bacterial survival (%) compared to control group ±SEM (n=15 wounds). Statistical significance was estimated by Student's t test. *=p<0.05, **=p<0.01, ***=p<0.001.
The in vivo antimicrobial effects of the peptide 265 (SEQ ID NO: 27) was investigated in an excision wound model in rats. The wounds were inoculated with methicillin resistant S. aureus (MRSA) for two hours, followed by a single administration of peptide or control (H2O) for two hours before termination and harvest of the bacteria.

[11] = tested on: S. aureus (CCUG 1800); assay: Minimal microbicidal concentration (MMC99) assay, S. aureus; type: cell-based
Method: Antimicrobial Activity was Measured as Bactericidal Effect on S. Aureus Using Minimal Microbicidal Concentration, MMC99, Assay)
S. aureus (#1800; CCUG, Gothenburg, Sweden) cultured on blood-agar plates [Columbia agar (Oxoid, Basingstoke, UK) supplemented with 5% defibrinated horse blood (National Veterinary Institute (SVA), Uppsala, Sweden)] were transferred to brain heart infusion broth (3.7% BHI; Difco, BD Diagnostics, Franklin Lakes, N.J., USA) and incubated in a shaker at 250 rpm+37° C. over night. The culture was thereafter be diluted 1:10 in fresh BHI broth and incubated for additional two hours to reach log-phase growth. The bacteria were pelleted and suspended in 1% BHI medium (BHI broth diluted 100 times in ultra-pure water) to a concentration of 10^7 bacteria/ml as estimated by measuring optical density at 600 nm. Peptides were serially diluted by two-fold steps from 160 μM to 1.25 μM in 1% BHI medium. The peptides (100 μl) were thereafter incubated with bacteria (5 μl á 10^7 bact./ml) for 2 hours at +37° C. Drops (5 μl) of the suspension were placed on blood agar plates. The blood agar plates were incubated over night at +37° C. The MMC99 values, i.e. the lowest peptide concentration needed to achieve a 99% reduction of viable bacteria, were recorded (Table 3). The concentration of the bacterial suspension used in the assay was confirmed by viable counts on blood agar plates.
S. aureus (#1800; CCUG, Gothenburg, Sweden) cultured on blood-agar plates [Columbia agar (Oxoid, Basingstoke, UK) supplemented with 5% defibrinated horse blood (National Veterinary Institute (SVA), Uppsala, Sweden)] were transferred to brain heart infusion broth (3.7% BHI; Difco, BD Diagnostics, Franklin Lakes, N.J., USA) and incubated in a shaker at 250 rpm+37° C. over night. The culture was thereafter be diluted 1:10 in fresh BHI broth and incubated for additional two hours to reach log-phase growth. The bacteria were pelleted and suspended in 1% BHI medium (BHI broth diluted 100 times in ultra-pure water) to a final concentration of 10^7 bacteria/ml as estimated by measuring optical density at 600 nm. Peptides were serially diluted by two-fold steps from 400 μM to 0.78 μM in either 1% BHI medium or in 50% heat inactivated simulated wound fluid [SWF, containing 1 part 0.1% peptone (Oxoid, Basingstoke, UK) in saline and 1 part fetal bovine serum, diluted 2 times in ultra-pure water].
The peptides (100 μl) were thereafter incubated with bacteria (5 μl á 10^7 bact./ml) for 2 hours at +37° C. Drops (5 μl) of the suspension were placed on blood agar plates. The blood agar plates were incubated over night at +37° C. The MMC99 values, i.e. the lowest peptide concentration needed to achieve a 99% reduction of viable bacteria were recorded (Table 6). The concentration of the bacterial suspension used in the assay was confirmed by viable counts on blood agar plates.
as §1, §2

[12] = tested on: C. albicans (ATCC 64549); assay: MMC99 assay, C. albicans; type: cell-based; settings: Table 8B
Method: as §1, §2

[13] = tested on: P. aeruginosa (ATCC 15442); assay: MMC99 assay, P. aeruginosa; type: cell-based; settings: Table 8A
Method: as §1, §2

Sequence: FRQWKRWMRKVFHSWRRW [Peptide 265]
- MMC99 E. coli 1% BHI ([1]; 1% BHI): 5 µg/mL
- MMC99 E. coli 50% SWF ([1]; 50% SWF): 67 µg/mL
- MMC99 S. pyogenes 1% BHI ([2]; 1% BHI): <3 µg/mL
- MMC99 S. pyogenes 50% SWF ([2]; 50% SWF): 25 µg/mL
- MMC99 K. pneumoniae 1% BHI ([3]; 1% BHI): 3 µg/mL
- MMC99 K. pneumoniae 50% SWF ([3]; 50% SWF): 25 µg/mL
- MMC99 S. epidermidis 1% BHI ([4]; 1% BHI): <2 µg/mL
- MMC99 S. epidermidis 50% SWF ([4]; 50% SWF): 6 µg/mL
- MMC99 P. acnes 1% BHI ([5]; 1% BHI): <3 µg/mL
- MMC99 P. acnes 50% SWF ([5]; 50% SWF): 50 µg/mL
- MMC99 MRSA 1% BHI ([6]; 1% BHI): 6 µg/mL
- MMC99 MRSA 50% SWF ([6]; 50% SWF): 50 µg/mL
- bacterial colonization of infected wounds in pig skin [7]: significant reduction in bacterial counts with a dose response relation; also recorded: highly effective
- TNF-α at 40 μM peptide ([8]; stimulated level without peptide = 100%, basal = 0%, 40 μM peptide): 13.8%
- TNF-α at 4 μM peptide ([8]; 4 μM peptide): 87.0%
- TNF-α at 10 μM peptide ([8]; 10 μM peptide): 31.1%
- MMC99 A. baumannii 1% BHI ([9]; 1% BHI): <2 µg/mL
- MMC99 A. baumannii 50% SWF ([9]; 50% SWF): 12 µg/mL
- bacterial colonization of infected excision wounds in rats [10]: significant reduction in bacterial counts in a dose response fashion; also recorded: pronounced antimicrobial effect
- MMC99 S. aureus 1% BHI ([11]; 1% BHI, Table 8A): 4 µg/mL
- MMC99 S. aureus 50% SWF ([11]; 50% SWF, Table 8A): 8 µg/mL
- MMC99 μM in 1% BHI medium ([11]; screen 2, 1% BHI medium, 2 hours): 6.25 µM
- MMC99 μM in 50% SWF ([11]; screen 2, 50% heat inactivated simulated wound fluid, 2 hours): 12.5 µM
- MMC99 C. albicans 1% BHI ([12]; 1% BHI): 6 µg/mL
- MMC99 C. albicans 50% SWF ([12]; 50% SWF): 100 µg/mL
- MMC99 P. aeruginosa 1% BHI ([13]; 1% BHI): 4 µg/mL
- MMC99 P. aeruginosa 50% SWF ([13]; 50% SWF): 134 µg/mL
